Experimental data from US20040033213A1, “Methods of modulating dendritic cells using adjuvants” (Corixa Corporation, priority 2002, published 2004).

Experiments:
Assay type in all cases: cell-based
[1] = system: 6-7 day cultured human dendritic cells; test: ELISA of cytokines (IL-12 p40, IL-12 p70, TNF-α) in 22 h induction supernatants of cultured human dendritic cells; settings: for IL-12 p40 / IL-12 p70 / TNF-α: 22 Hrs
Source text: Recent articles have described how human dendritic cells can be derived in vitro from CD14 positive monocyte precursors in peripheral blood. A “buffy coat” preparation can now be commonly obtained from a unit of normal human peripheral blood from a blood bank on request. The leukocyte fraction was harvested from this buffy coat preparation using standard ficoll centrifugation techniques. Subsequently, the leukocyte fraction was labeled with anti-CD 14 antibody coupled to magnetic microbeads. This preparation was then passed over a magnet (Miltanyi Biotech) and CD14 positive monocytes were collected. These CD14 positive monocyte precursors were then cultured for 5-7 days in vitro (5×10^5 cells/ml) with GM-CSF (20 ng/ml) for the duration of the culture. […] After the 24 hour in vitro stimulation culture, cells were washed twice and stained with a panel of monoclonal antibodies specific for different cell surface activation and co-receptor molecules found on mature, activated DCs.
Supernatants from DCs stimulated with LPS, MPL® immunostimulant-S, RC-527, RC-529, and RC-544 were collected and tested by ELISA analysis for cytokines.

[2] = system: cultured human DCs + autologous T cells
[3] = system: murine bone marrow derived DCs + D011.10 T cells; test: APC function of ova-pulsed, lipid A potentiated murine DCs co-cultured with D011.10 T cells (cytokine ELISA)
Source text: These antigen pulsed, lipid A potentiated cells were then washed thoroughly and titered against ova-specific T cell effector cells in vitro at an APC: T cell ratio titration of 1:1 out to as high as 1:512. The effector T cells in this in vitro assay were the antigen naive, but antigen (ova) specific, MHC restricted I-A^d splenic T cells from transgenic D011.10 mice.
D011.10 TCR-transgenic mice were used in these experiments as donors of antigen specific naive T cells. In their germline DNA these mice contain rearranged TCR-Vα and -Vβ genes that encode a T cell receptor (TCR) specific for the ovalbumin peptide 323-339 bound to IA^d (Balb/c) Class II MHC molecules. The transgenic ova peptide specific TCR can be detected with the KJ1-26 monoclonal antibody (mAb) that binds only to this particular TCR heterodimer. These cells provide a ready source of “normal” antigen (ova)-specific effector T cells. Effective antigen-mediated APC stimulation of those T cells is generally measured by ELISA quantitation of IL-2 or IFN-γ in the culture supernatants of DC+D011.10 T cells after 24-48 hours of incubation.
In one experiment, murine bone marrow derived DCs (6 day cultures) were pulsed with ova (50 μg/ml-5×10^5 cells/ml) and then potentiated overnight with LPS(R595), MPL® immunostimulant-S, RC-527, RC-529 or RC-544 prior to being cultured together with naive D011.10 effector T cells (FIGS. 1-7). The APC function of these DCs as measured by their ability to stimulate IL-2, IFN-γ IL-12 (p70) and IL-12 (p40) secretion in the DC+D011.10 co-culture systems was analyzed. All of the data shown in FIGS. 1-7 was developed from DCs maintained in lipid A induction cultures for either 15 or 38 hours prior to use in the T cell assay.

[4] = system: Human d7 Cultured Dendritic Cells; test: Flow cytometry phenotype analysis of human d7 cultured dendritic cells after 24 h stimulation; settings: for HLA-DR MFI: 7 day DCs, 24 h stimulation
[5] = Exp. # 092398, Day 7, LPS 10 ng/ml, others 100 ng/ml
[6] = Exp. # 093098, LPS 10 ng/ml, others 100 ng/ml
[7] = Exp. 091698, 24 h, LPS 10 ng/ml, others 100 ng/ml
[8] = Exp. 092398, 24 h, LPS 10 ng/ml, others 100 ng/ml
[9] = Exp. 093098, 24 h, LPS 10 ng/ml, others 100 ng/ml

## CCCCCCCCCCCC(=O)OC(CCCCCCCCCCC)CC(=O)NC(CO)COC1OC(CO)C(OP(=O)(O)O)C(OC(=O)CC(CCCCCCCCCCC)OC(=O)CCCCCCCCCCC)C1NC(=O)CC(CCCCCCCCCCC)OC(=O)CCCCCCCCCCC (centres unmarked) [RC-544]
[1]; Exp. # 091698, LPS 10 ng/ml, others 100 ng/ml
  IL-12 p40: 42,500 pg/mL/5 × 10^5 Cells
[1]; Exp. # 092398 (second line, Day7), LPS 10 ng/ml, others 100 ng/ml
  IL-12 p70: 175.2 pg/ml/5 × 10^5 Cells
[1]; [5]
  IL-12 p40: 80,500 pg/mL/5 × 10^5 Cells
  TNF-α: 5.650 pg/mL/5 × 10^5 Cells
[1]; Exp. # 092398 as printed (first line of section), LPS 10 ng/ml, others 100 ng/ml
  IL-12 p70: 8.8 pg/ml/5 × 10^5 Cells
[1]; Exp. # 092398 as printed (third line of section), LPS 10 ng/ml, others 100 ng/ml
  IL-12 p70: 55.7 pg/ml/5 × 10^5 Cells
[1]; [6]
  IL-12 p40: 62,000 pg/mL/5 × 10^5 Cells
  TNF-α: 880 pg/mL/5 × 10^5 Cells
[1]; all three experiments, LPS 10 ng/ml, others 100 ng/ml
  IL-12 (p40) expression (in words): also stimulated IL-12 (p40) responses
[1]; the one donor in which LPS and MPL-S gave a significant amount
  IL-12 (p70) (in words): high levels of IL-12 (p70)
[1]; three donors
  TNF-α secretion (in words): moderately lower than the effect due to RC-527
[2]
  T cell proliferation / DC activation, CPM 3H-thymidine response (in words): highest levels of DC activation compared to MPL® immunostimulant
[3]; DCs prestimulated 15 hours, all T cell:APC ratios, FIG. 1
  IL-2 secretion (in words): comparable in their ability to stimulate IL-2 secretion
[3]; FIG. 5
  IL-12 (p70) in DC+D011.10 co-cultures (in words): overall weaker in their effect than LPS and RC-527
[3]; FIG. 6
  IL-12 (p70) at T cell:APC ratio 16:1 (in words): substantially higher stimulation effect than that induced by RC-529
[3]; FIG. 7
  release of IL-12 (p40) homodimer in DC+D011.10 co-cultures (in words): weaker in their effect than LPS and RC-527
[4]; [7]
  CD 1a % positive cells: 11.6%
  CD 1a MFI: 7.38
  CD 4 % positive cells: 70.6%
  CD 4 MFI: 2.17
  CD 14 % positive cells: 7.6%
  CD 35 % positive cells: 52.5%
  CD 35 MFI: 2.85
  CD 40 MFI: 31.8
  CD 44 MFI: 242
  CD 54 MFI: 26.1
  CD 62 L % positive cells: 11.6%
  CD 69 % positive cells: 10.8%
  CD 80 % positive cells: 99.2%
  CD 80 MFI: 5.99
  CD 83 % positive cells: 94.3%
  CD 83 MFI: 2.72
  CD 86 % positive cells: 99.7%
  CD 86 MFI: 15.3
  CD 95 % positive cells: 86.0%
  CD 95 MFI: 1.31
[4]; Exp. 091698, LPS 10 ng/ml, others 100 ng/ml
  HLA-DR MFI: 544-S 60.8
[4]; [8]
  CD 1a % positive cells: 75.6%
  CD 1a MFI: 4.44
  CD 4 % positive cells: 75.7%
  CD 4 MFI: 2.80
  CD 14 % positive cells: 5.0%
  CD 35 % positive cells: 59.1%
  CD 35 MFI: 2.98
  CD 40 MFI: 33.7
  CD 54 MFI: 32.7
  CD 62 L % positive cells: 7.1%
  CD 69 % positive cells: 10.1%
  CD 80 % positive cells: 99.1%
  CD 80 MFI: 7.56
  CD 83 % positive cells: 97.1%
  CD 83 MFI: 3.52
  CD 86 % positive cells: 99.9%
  CD 86 MFI: 26.4
  CD 95 % positive cells: 90.6%
  CD 95 MFI: 1.40
  αC5aR + GAR Alexa % positive cells: 45.9%
[4]; Exp. 092398, 24 h, LPS 10 ng/ml, others 100 ng/ml, values printed with a trailing +
  CD 44 MFI: 426+
[4]; Exp. 092398, 24 h, secondary reagent staining, LPS 10 ng/ml, others 100 ng/ml
  GAR-Alexa % positive cells: 3.9%
[4]; Exp. 092398, LPS 10 ng/ml, others 100 ng/ml
  HLA-DR MFI: 155.2
[4]; [9]
  CCR 6 % positive cells: 5.8%
  CD 1a % positive cells: 78.1%
  CD 1a MFI: 6.06
  CD 3 % positive cells: 26.8%
  CD 3 MFI: 3.86
  CD 4 % positive cells: 79.4%
  CD 4 MFI: 3.11
  CD 11c % positive cells: 91.0%
  CD 11c MFI: 6.23
  CD 14 % positive cells: 4.1%
  CD 40 MFI: 30.4
  CD 54 MFI: 36.8
  CD 62 L % positive cells: 4.0%
  CD 80 % positive cells: 99.0%
  CD 80 MFI: 10.9
  CD 83 % positive cells: 92.5%
  CD 83 MFI: 3.43
  CD 86 % positive cells: 99.8%
  CD 86 MFI: 26.3
  CD 123 % positive cells: 48.0%
  CD 123 MFI: 1.85
  αC5aR + Alexa 488 % positive cells: 43.3%
  αC5aR + Alexa 488 MFI: 9.41
[4]; Exp. 093098, LPS 10 ng/ml, others 100 ng/ml
  HLA-DR MFI: 134.3
[4]; RC-529 compared with RC-544, three experiments
  stimulating the expression of HLA-DR and co-stimulatory molecules (in words): very comparable effects
[4]; RC-544 compared with RC-529
  CD40 and CD83 expression (in words): slightly higher levels of CD40 and CD83 expression than did RC-529
